From EP2170322B1, “METHODS OF MODIFYING AMYLOID ß OLIGOMERS USING NON-[…] COMPOUNDS” (Acumen Pharmaceuticals, Inc., priority 2007, dated 2009) come the findings set out here.

The experiment concerns the target T1, Aβ1-42 (Homo sapiens, UniProt P05067).
T1 construct: containing 0.2 µM FITC-Aβ(1-42) and 0.8 µM Aβ(1-42)
In words: FRET assay of Aβ1-42 oligomer (ADDL) assembly inhibition. Type of experiment: biochemical. The settings on record: for IC50: assay of Example 1, 0.2 µM FITC-Aβ(1-42) and 0.8 µM Aβ(1-42), 37°C, six concentrations from about 30 µM to about 0.05 µM. From the text:
Fluorescence (or Förster) Resonance Energy Transfer (FRET) is a distance-dependent, non-radiative transfer of energy in which the de-excitation of one fluorophore (donor) is coupled to excitation of another fluorophore (acceptor). FRET occurs if (1) the quantum of energy emitted by a donor fluorophore corresponds to an acceptor fluorophore's excitation energy, (2) the orientations of donor and acceptor transition dipoles are nearly parallel and (3) the donor fluorescent emission spectrum overlaps the acceptor absorption spectrum. In this assay, assembly of Aβ1-42 oligomer formation is monitored by FRET using N-terminal conjugates of fluorescein-Aβ1-42 as both the donor and acceptor fluorophore (fluorescein-fluorescein Ro~ 45 Ǻ). Aβ1-42 monomers assembling into oligomeric species results in a decrease of fluorescence as the fluorescein labeled Aβ1-42 peptides become proximal to each other and FRET efficiency increases. Inhibition of Aβ1-42 assembly is observed as the absence or attenuation of fluorescein quenching. FRET and FP assays are performed in 384-well Coming Non-Binding Surface, black, opaque microtiter plates, and the assay buffer consists of 50 mM MOPS-Tris (pH 8.0) with 100 mM MgCl2. The assay volume, containing 0.2 µM FITC-Aβ(1-42) and 0.8 µM Aβ(1-42), is 50 µl and the temperature is 37°C. ADDL assembly is monitored on a Tecan GENios Pro plate reader, exciting at a wavelength of 485 nm and detecting emission at a wavelength of 515 nm. Kinetic traces are collected by recording fluorescence intensity and polarization readings every five minutes over about a three to about a six-hour time course. […] Positive control reactions contain all buffer components in the absence of added small molecule or antibody reagents. To test for ADDL assembly inhibition, the non-peptidic compound was incubated with the peptide mixture at six concentrations from about 30 µM decreasing to about 0.05 µM.

T1 sequence (P05067 672-713 limits assumed): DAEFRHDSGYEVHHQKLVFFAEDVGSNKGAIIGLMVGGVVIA

Turning to `CCOC(=O)c1c(NC(=O)C(=O)N/N=C/c2ccccc2O)sc2c1CCC(C)C2` (centres unmarked) [Compound 4, 2-{[1-(2-Hydroxyphenyl)-meth-(E)-ylidene-hydrazinooxalyl]-amino}-6-methyl-4,5,6,7-tetrahydro-benzo[b]thiophene-3-carboxylic acid ethyl ester], the 50% inhibitory concentration (IC50) was 1.1 µM. In addition, where the note is “Test Compound A ranging from 0.05 to 3 mM, FIG. 1”, the “inhibition of Aβ1-42 oligomer assembly” value is listed as “dose dependent inhibition”.
`COc1ccccc1NC(=O)C(=O)N/N=C(/CC(=O)c1cccs1)C(F)(F)F` [Compound 1, N-(2-Methoxy-phenyl)-2-oxo-2-{N'-[3-oxo-3-thiophen-2-yl-1-trifluoromethyl-prop-(Z)-ylidene]-hydrazino}-acetamide] registered a 50% inhibitory concentration (IC50) of 3.9 µM.
Still for that read-out and setting: for `COc1ccccc1NC(=O)C(=O)N1N=C(CC(C)C)CC1(O)C(F)(F)F` (centres unmarked) [Compound 5, 2-(5-hydroxy-3-isobutyl-5-(trifluoromethyl)-4,5-dihydro-1H-pyrazol-1-yl)-N-(2-methoxyphenyl)-2-oxoacetamide] the value was 3.2 µM; for `CCOC(=O)c1c(NC(=O)C(=O)N/N=C/c2c(O)ccc3ccccc23)sc2c1CCC(C)C2` (centres unmarked) [Compound 3, 2-{[1-(2-Hydroxynaphthalen-1-yl)-meth-(E)-ylidene-hydrazinooxalyl]-amino}-6-methyl-4,5,6,7-tetrahydro-benzo[b]thiophene-3-carboxylic acid ethyl ester], 4.4 µM; for `CCOC(=O)c1c(NC(=O)C(=O)N/N=C/c2cccc(OC)c2O)sc2c1CCC(C)C2` (centres unmarked) [Compound 2, 2-{[1-(2-Hydroxy-3-methoxy-phenyl)-meth-(E)-ylidene-hydrazinooxalyl]-amino}-6-methyl-4,5,6,7-tetrahydro-benzo[b]thiophene-3-carboxylic acid ethyl ester], 3.5 µM.
In the case of `NCCCS(=O)(=O)O` [Alzhemed, 3-amino-1-propanesulfonic acid, reference compound], the “inhibition of Aβ1-42 monomer assembly into Aβ oligomers” value (standard FRET assay conditions of Example 1, comparative example, FIG 2) is recorded as “inability”.
In turn, `O=C(N/N=C/c1ccc2ccccc2c1O)c1ccccc1O` [Compound 6] gave an IC50 of 3.8 µM.
